# Key:
# Assay in all cases: Antibacterial effectiveness testing, growth inhibition in BHI broth (absorbance 600 nm)
# Settings in all cases: 37° C., 24 h
# S. aeureus, ATCC 6538 = assay type: cell-based, S. aureus
# Experimental: (§1) The antibacterial effectiveness testing was run against 7 strains of bacteria using the following protocol. Protocol: […] Bacteria (either E. coli or P. aeruginosa or S. aureus or […] or K. pneumonia or A. baumanni or C. albicans) are added to all well except the control and incubated at 37° C. for 24 h. The absorbance was read at 600 nm. MIC90 was calculated as the concentration at which 90% growth inhibition is noticed. N=4 replicates for each compound and bacteria.
# E. coli, ATCC-8739 = assay type: cell-based
# Experimental: as §1
# S. marcenes, ATCC-21639 = assay type: cell-based
# Experimental: as §1
# C. albicans, ATCC1-0231 = assay type: cell-based
# Experimental: as §1
# A. baumanni-ATCC-19606 = assay type: cell-based
# Experimental: as §1, with “protocol.” for “protocol. Protocol:”
# K. pneumonia, ATCC-18804 = assay type: cell-based
# Experimental: as §1, with “protocol.” for “protocol. Protocol:”
# P. aeruginosa, ATCC-9027 = assay type: cell-based
# Experimental: as §1, with “protocol.” for “protocol. Protocol:”
# [1] = * BHI not containing acetic acid/BSA, beginning 1000 μg/mL suspension
# [2] = no asterisk, beginning 1000 μg/mL in DMSO/Water
# [3] = no asterisk (BHI containing acetic acid/BSA), beginning 1000 μg/mL suspension
structure (smiles),measurement,setting,value
"Cl.Cl.N=C(NCCCCCCNC(=N)NC(=N)Nc1ccc(Cl)cc1)NC(=N)Nc1ccc(Cl)cc1 [USD 20, chlorhexidine dihydrochloride, reference compound]","MIC (S. aeureus, ATCC 6538)","S. aeureus, ATCC 6538; [1]",0.78 µg/mL
same,"MIC (S. aeureus, ATCC 6538)","S. aeureus, ATCC 6538; [2]",0.76 µg/mL
same,"MIC90 (E. coli, ATCC-8739)","E. coli, ATCC-8739; [1]",0.78 µg/mL
same,"MIC90 (E. coli, ATCC-8739)","E. coli, ATCC-8739; [2]",1.5 µg/mL
same,"MIC (S. marcenes, ATCC-21639)","S. marcenes, ATCC-21639; [1]",6.25 µg/mL
same,"MIC (S. marcenes, ATCC-21639)","S. marcenes, ATCC-21639; [2]",3.25 µg/mL
same,"MIC (C. albicans, ATCC1-0231)","C. albicans, ATCC1-0231; [2]",12.5 µg/mL
same,MIC (A. baumanni-ATCC-19606),A. baumanni-ATCC-19606; [1],25 µg/mL
same,MIC (A. baumanni-ATCC-19606),A. baumanni-ATCC-19606; [2],0.39 µg/mL
same,"MIC (K. pneumonia, ATCC-18804)","K. pneumonia, ATCC-18804; [1]",25 µg/mL
same,"MIC (K. pneumonia, ATCC-18804)","K. pneumonia, ATCC-18804; [2]",3.12 µg/mL
same,"MIC90 (P. aeruginosa, ATCC-9027)","P. aeruginosa, ATCC-9027; [1]",25 µg/mL
same,"MIC90 (P. aeruginosa, ATCC-9027)","P. aeruginosa, ATCC-9027; [2]",1.5 µg/mL
N=C(NCCN(CCNC(=N)NC(=N)Nc1ccc(C(F)(F)F)cc1)CCNC(=N)NC(=N)Nc1ccc(C(F)(F)F)cc1)NC(=N)Nc1ccc(C(F)(F)F)cc1 [USD 19],"MIC (S. aeureus, ATCC 6538)","S. aeureus, ATCC 6538; [1]",3.12 µg/mL
same,"MIC (S. aeureus, ATCC 6538)","S. aeureus, ATCC 6538; [3]",1.5 µg/mL
same,"MIC90 (E. coli, ATCC-8739)","E. coli, ATCC-8739; [1]",12.5 µg/mL
same,"MIC90 (E. coli, ATCC-8739)","E. coli, ATCC-8739; [3]",315 µg/mL
same,"MIC (S. marcenes, ATCC-21639)","S. marcenes, ATCC-21639; [1]",3.12 µg/mL
same,"MIC (S. marcenes, ATCC-21639)","S. marcenes, ATCC-21639; [3]",100 µg/mL
same,"MIC (C. albicans, ATCC1-0231)","C. albicans, ATCC1-0231; [3]",6.25 µg/mL
same,MIC (A. baumanni-ATCC-19606),A. baumanni-ATCC-19606; [1],3.12 µg/mL
same,MIC (A. baumanni-ATCC-19606),A. baumanni-ATCC-19606; [3],1.5 µg/mL
same,"MIC (K. pneumonia, ATCC-18804)","K. pneumonia, ATCC-18804; [3]",25 µg/mL
same,"MIC90 (P. aeruginosa, ATCC-9027)","P. aeruginosa, ATCC-9027; [1]",12.5 µg/mL
same,"MIC90 (P. aeruginosa, ATCC-9027)","P. aeruginosa, ATCC-9027; [3]",3.15 µg/mL
N=C(NCCN(CCNC(=N)NC(=N)Nc1ccc(Cl)cc1)CCNC(=N)NC(=N)Nc1ccc(Cl)cc1)NC(=N)Nc1ccc(Cl)cc1 [USD 18],"MIC (S. aeureus, ATCC 6538)","S. aeureus, ATCC 6538; [1]",0.78 µg/mL
same,"MIC (S. aeureus, ATCC 6538)","S. aeureus, ATCC 6538; [3]",0.76 µg/mL
same,"MIC (S. aeureus, ATCC 6538)","S. aeureus, ATCC 6538; [2]",0.76 µg/mL
same,"MIC90 (E. coli, ATCC-8739)","E. coli, ATCC-8739; [1]",3.12 µg/mL
same,"MIC90 (E. coli, ATCC-8739)","E. coli, ATCC-8739; [3]",3.15 µg/mL
same,"MIC90 (E. coli, ATCC-8739)","E. coli, ATCC-8739; [2]",6.25 µg/mL
same,"MIC (S. marcenes, ATCC-21639)","S. marcenes, ATCC-21639; [1]",3.12 µg/mL
same,"MIC (S. marcenes, ATCC-21639)","S. marcenes, ATCC-21639; [3]",50 µg/mL
same,"MIC (S. marcenes, ATCC-21639)","S. marcenes, ATCC-21639; [2]",12.5 µg/mL
same,"MIC (C. albicans, ATCC1-0231)","C. albicans, ATCC1-0231; [3]",6.25 µg/mL
same,"MIC (C. albicans, ATCC1-0231)","C. albicans, ATCC1-0231; [2]",3.12 µg/mL
same,MIC (A. baumanni-ATCC-19606),A. baumanni-ATCC-19606; [1],3.12 µg/mL
same,MIC (A. baumanni-ATCC-19606),A. baumanni-ATCC-19606; [3],6.25 µg/mL
same,MIC (A. baumanni-ATCC-19606),A. baumanni-ATCC-19606; [2],0.39 µg/mL
same,"MIC (K. pneumonia, ATCC-18804)","K. pneumonia, ATCC-18804; [3]",12.5 µg/mL
same,"MIC (K. pneumonia, ATCC-18804)","K. pneumonia, ATCC-18804; [2]",6.25 µg/mL
same,"MIC90 (P. aeruginosa, ATCC-9027)","P. aeruginosa, ATCC-9027; [1]",6.25 µg/mL
same,"MIC90 (P. aeruginosa, ATCC-9027)","P. aeruginosa, ATCC-9027; [3]",0.76 µg/mL
same,"MIC90 (P. aeruginosa, ATCC-9027)","P. aeruginosa, ATCC-9027; [2]",0.76 µg/mL
